For orientation: IC50 means the concentration at which inhibition is half-maximal.

Some results are limits rather than exact numbers.

The target of assay [1] is T1, HDAC2 (Homo sapiens, UniProt Q92769).
T1 construct: host or cells: SH-SY5Y cells
The assay is described as follows: HDAC2 enzymatic inhibition assay in SH-SY5Y cell lysate with an exogenous substrate (HDAC-Glo 2). Type of assay: cell-based. The conditions noted are these: SH-SY5Y cells, five hours incubation, HDAC-Glo 2 reagent; class symbols. As to the method: HDAC2 Enzymatic Inhibition Assay in SH-SY5Y Cell Lysate with an Exogenous Substrate
SH-SY5Y cells (Sigma) were cultured in Eagle's Modified Essential Medium supplemented with 10% fetal bovine serum and pen/strep. Twenty-four hours prior to compound dosing 20 uL of cells were plated in white 384 well plates at a density of 1,500 cells/well. Compounds were serially diluted in neat DMSO and then diluted 1:100 v/v into media without FBS and mixed. Media was removed from the plated cells and the diluted compounds in serum free media (1% v/v final DMSO) were added and incubated at 37.0 for five hours. Ten uL of HDAC-Glo 2 reagent with 0.1% Triton X-100 was then added, the plate was mixed and allowed to develop at room temperature for 100 minutes. Plates were then read with a Spectramax LMax luminometer employing a 0.4 s integration time. Dose response curves were constructed with normalized data where CI-994 at 100 uM was defined as 100% inhibition and DMSO alone as 0% inhibition.
In the table, “A” indicates a IC50 value of less than 0.5 μM; “B” a IC50 value from 0.5 μM to 1.0 μM; “C” a IC50 value of greater than 1.0 μM and less than or equal to 2.0 μM; and “D” indicates an IC50 value of greater than 2.0 μM. NT=Not Tested.

Assay [2] has as its target T2, Full length Human HDAC1 (Homo sapiens, UniProt Q13547).
T2 construct: Full length Human HDAC1 with; His (C); FLAG (C); host or cells: baculovirus expression system
The assay is described as follows: HDAC1 enzymatic assay (deacetylation of FAM-labeled peptide substrate, microfluidic electrophoresis). Type of assay: biochemical. To be noted: 1 uM substrate peptide. As to the method:
(§1) HDAC2 and HDAC1 Enzymatic Assay (HDAC2 and HDAC1 IC50 Data)
(§2) The following describes an assay protocol for measuring the deacetylation of a peptide substrate by HDAC2 or HDAC1.
(§3) HDAC protein composition and respective substrate peptides are summarized below.
(§4) HDAC reactions are assembled in 384 well plates (Greiner) in a total volume of 20 µL as following:
(§5) HDAC proteins are pre-diluted in the assay buffer comprising: 100 mM HEPES, pH 7.5, 0.1% BSA, 0.01% Triton X-100, 25 mM KCl and dispensed into 384 well plate (10 uL per well).
(§6) Test compounds are serially pre-diluted in DMSO and added to the protein samples by acoustic dispensing (Labcyte Echo). Concentration of DMSO is equalized to 1% in all samples.
(§7) Control samples (0%-inhibition in the absence of inhibitor, DMSO only) and 100%-inhibition (in the absence of enzyme) are assembled in replicates of four and used to calculate the %-inhibition in the presence of compounds.
(§8) At this step compounds can be pre-incubated with enzyme if desired.
(§9) The reactions are initiated by addition of 10 uL of the FAM-labeled substrate peptide pre-diluted in the same assay buffer. Final concentration of substrate peptide is 1 uM (HDAC1-2). The reactions are allowed to proceed at room temperature. Following incubation, the reactions are quenched by addition of 50 µL of termination buffer (100 mM HEPES, pH7.5, 0.01% Triton X-100, 0.1% SDS). Terminated plates are analyzed on a microfluidic electrophoresis instrument (Caliper LabChip® 3000, Caliper Life Sciences/Perkin Elmer) which enables electrophoretic separation of de-acetylated product from acetylated substrate. A change in the relative intensity of the peptide substrate and product is the parameter measured. Activity in each test sample is determined as the product to sum ratio (PSR): P/(S+P), where P is the peak height of the product, and S is the peak height of the substrate. Percent inhibition (Pinh) is determined using the following equation: Pinh=(PSR0% inh−PSRcompound)/(PSR0% inh−PSR100% inh)*100, in which: PSRcompound is the product/sum ratio in the presence of compound, PSR0% inh is the product/sum ratio in the absence of compound and the PSR100% inh is the product/sum ratio in the absence of the enzyme. To determine IC50 of compounds (50%-inhibition) the %-inh data (Pinh versus compound concentration) are fit by a 4 parameter sigmoid dose-response model using XLfit software (IDBS).
(§10) In the table, “A” indicates a IC50 value of less than 0.5 “B” a IC50 value from 0.5 μM to 1.0 μM; “C” a IC50 value of greater than 1.0 μM and less than or equal to 2.0 μM; and “D” indicates an IC50 value of greater than 2.0 NT=Not Tested.

For assay [3], the target named is T3, Full length Human HDAC2 (Homo sapiens, UniProt Q92769).
T3 construct: Full length Human HDAC2 with; FLAG (C); host or cells: baculovirus expression system
T3 sequence (Q92769 whole entry): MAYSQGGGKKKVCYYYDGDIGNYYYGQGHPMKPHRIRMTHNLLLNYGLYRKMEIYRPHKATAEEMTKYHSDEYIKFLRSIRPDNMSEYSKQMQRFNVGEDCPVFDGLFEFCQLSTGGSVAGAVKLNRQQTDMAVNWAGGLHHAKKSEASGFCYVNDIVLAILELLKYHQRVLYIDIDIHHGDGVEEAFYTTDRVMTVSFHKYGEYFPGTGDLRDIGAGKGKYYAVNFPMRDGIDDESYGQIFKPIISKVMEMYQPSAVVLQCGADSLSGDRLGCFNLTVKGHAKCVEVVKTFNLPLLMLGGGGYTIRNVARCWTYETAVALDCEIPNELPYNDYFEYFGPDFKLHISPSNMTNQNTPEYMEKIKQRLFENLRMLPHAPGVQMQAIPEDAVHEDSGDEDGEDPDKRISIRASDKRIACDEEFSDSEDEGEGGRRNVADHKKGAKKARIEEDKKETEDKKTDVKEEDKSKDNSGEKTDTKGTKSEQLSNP
The assay is described as follows: HDAC2 enzymatic assay (deacetylation of FAM-labeled peptide substrate, microfluidic electrophoresis). To be noted: 1 uM substrate peptide. It counts as biochemical. As for the experimental part: as §1, §2, §3, §4, §5, §6, §7, §8, §9, §10

T2 sequence (Q13547 whole entry): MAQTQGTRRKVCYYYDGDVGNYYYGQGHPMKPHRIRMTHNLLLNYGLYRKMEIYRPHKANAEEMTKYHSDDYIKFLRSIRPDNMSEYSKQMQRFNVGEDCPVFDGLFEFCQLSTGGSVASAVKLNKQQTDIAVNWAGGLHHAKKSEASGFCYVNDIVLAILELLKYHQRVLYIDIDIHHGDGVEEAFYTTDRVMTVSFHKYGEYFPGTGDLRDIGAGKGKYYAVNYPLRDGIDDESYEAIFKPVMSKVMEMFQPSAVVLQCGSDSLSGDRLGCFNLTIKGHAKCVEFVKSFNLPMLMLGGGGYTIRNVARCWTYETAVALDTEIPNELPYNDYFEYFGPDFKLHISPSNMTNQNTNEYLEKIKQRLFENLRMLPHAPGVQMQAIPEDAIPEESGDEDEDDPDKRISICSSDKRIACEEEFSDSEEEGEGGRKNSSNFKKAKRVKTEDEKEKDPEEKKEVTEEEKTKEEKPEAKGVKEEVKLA
T1 sequence (Q92769 whole entry): as the sequence (Q92769 whole entry) above

As to `Nc1ccc(-c2ccc(F)cc2F)nc1NC(=O)N1CCC(c2ncccn2)C1` (racemic) [Compound 7], the figures for the IC50 in assay [1], in assay [2] and in assay [3] were 500 to 1000 nM, less than 500 nM and 500 to 1000 nM, respectively.
For `Nc1ccc(-c2ccc(F)cc2F)nc1NC(=O)N1CCC(c2ncccn2)C1` (single isomer, unassigned) [Compound 8E1], the IC50 in assay [2] and in assay [3] was less than 500 nM throughout.
Regarding `Nc1ccc(-c2ccc(F)cc2F)nc1NC(=O)N1CCC(c2ncccn2)C1` (single isomer, unassigned) [Compound 8E2], the IC50 in assay [2] and in assay [3] was 1000 to 2000 nM in each case.
For `Nc1ccc(-c2ccc(F)cc2F)nc1NC(=O)N1CCC(c2ncc(F)cn2)C1` (single isomer, unassigned) [Compound 14E1], the results for the 50% inhibitory concentration (IC50) in assay [1], in assay [2] and in assay [3] were 500 to 1000 nM, less than 500 nM and 500 to 1000 nM, respectively.
In the case of `Nc1ccc(-c2ccc(F)cc2F)nc1NC(=O)N1CCC(c2ncc(F)cn2)C1` (single isomer, unassigned) [Compound 14E2], the IC50 in assay [1] is more than 2000 nM; in assay [2], 500 to 1000 nM; in assay [3], more than 2000 nM.
In the case of `Nc1ccc(-c2ccc(F)cc2)nc1NC(=O)N1CCC(c2ncccn2)C1` (single isomer, unassigned) [Compound 19E1], the IC50 in assay [1] was 1000 to 2000 nM; in assay [2], 500 to 1000 nM; in assay [3] it was less than 500 nM.
`Nc1ccc(-c2ccc(F)cc2)nc1NC(=O)N1CCC(c2ncccn2)C1` (single isomer, unassigned) [Compound 19E2]: the IC50 in assay [1] was 500 to 1000 nM; in assay [2], less than 500 nM; in assay [3] it was less than 500 nM.
Take `Nc1ccc(-c2ccc(F)cc2)nc1NC(=O)N1CCC(c2ncc(F)cn2)C1` (single isomer, unassigned) [Compound 20E1]: the IC50 in assay [1] lay within 1000 to 2000 nM; in assay [2], 500 to 1000 nM; in assay [3], 500 to 1000 nM.
As to `Nc1ccc(-c2ccc(F)cc2)nc1NC(=O)N1CCC(c2ncc(F)cn2)C1` (single isomer, unassigned) [Compound 20E2], the figures for the 50% inhibitory concentration (IC50) in assay [1], in assay [2] and in assay [3] were 500 to 1000 nM, less than 500 nM and less than 500 nM, respectively.
Take `Nc1ccc(-c2ccc(F)cc2F)nc1NC(=O)N1CCC(Cc2ncccn2)C1` (single isomer, unassigned) [Compound 25E1]: the results for the IC50 in assay [1], in assay [2] and in assay [3] were 500 to 1000 nM, 1000 to 2000 nM and 1000 to 2000 nM, respectively.
`Nc1ccc(-c2ccc(F)cc2F)nc1NC(=O)N1CCC(Cc2ncccn2)C1` (single isomer, unassigned) [Compound 25E2]: the values for the IC50 in assay [1], in assay [2] and in assay [3] were 500 to 1000 nM, 1000 to 2000 nM and more than 2000 nM, respectively.
For `Nc1ccc(-c2ccc(F)cc2F)nc1NC(=O)N1CCC(F)(c2ncccn2)C1` (single isomer, unassigned) [Compound 29E1], the results for the IC50 in assay [1], in assay [2] and in assay [3] were 500 to 1000 nM, less than 500 nM and less than 500 nM, respectively.
`Nc1ccc(-c2ccc(F)cc2F)nc1NC(=O)N1CCC(F)(c2ncccn2)C1` (single isomer, unassigned) [Compound 29E2]: the IC50 in assay [1], in assay [2] and in assay [3] was 1000 to 2000 nM throughout.
`Nc1ccc(-c2ccc(F)s2)nc1NC(=O)N1CCC(c2ncccn2)C1` (single isomer, unassigned) [Compound 39]: the concentration for half-maximal inhibition (IC50) is more than 2000 nM in assay [1], 1000 to 2000 nM in assay [2] and 1000 to 2000 nM in assay [3].
On to `Nc1ccc(-c2ccc(F)s2)nc1NC(=O)N1CCC(c2ncccn2)C1` (single isomer, unassigned) [Compound 40], for which the figures for the IC50 in assay [1], in assay [2] and in assay [3] were 500 to 1000 nM, less than 500 nM and less than 500 nM, respectively.
Take `Nc1ccc(-c2ccc(F)s2)nc1NC(=O)N1CCC(c2ncc(F)cn2)C1` (single isomer, unassigned) [Compound 43]: the IC50 in assay [1] is 1000 to 2000 nM; in assay [2], 1000 to 2000 nM; in assay [3] it was more than 2000 nM.
In the case of `Nc1ccc(-c2ccc(F)s2)nc1NC(=O)N1CCC(c2ncc(F)cn2)C1` (single isomer, unassigned) [Compound 44], the IC50 in assay [1] is 500 to 1000 nM; in assay [2], less than 500 nM; in assay [3], 500 to 1000 nM.
For the compound `Cc1ccnc(C2CCN(C(=O)Nc3nc(-c4ccc(F)cc4)ccc3N)C2)n1` (single isomer, unassigned) [Compound 50], the half-maximal inhibitory concentration (IC50) is more than 2000 nM in assay [1], 1000 nM in assay [2] and 1000 to 2000 nM in assay [3].
The matching figures for `Cc1ccnc(C2CCN(C(=O)Nc3nc(-c4ccc(F)cc4)ccc3N)C2)n1` (single isomer, unassigned) [Compound 51]: 1000 to 2000 nM, less than 500 nM and 500 to 1000 nM.
The matching figures for `Nc1ccc(-c2ccc(F)cc2)nc1NC(=O)N1CCC(F)(c2ncc(F)cn2)C1` (single isomer, unassigned) [Compound 52]: more than 2000 nM, 500 to 1000 nM and 1000 to 2000 nM.
Consider `Nc1ccc(-c2ccc(F)cc2)nc1NC(=O)N1CCC(F)(c2ncc(F)cn2)C1` (single isomer, unassigned) [Compound 53], for which the figures for the IC50 in assay [1], in assay [2] and in assay [3] were 500 to 1000 nM, less than 500 nM and 500 to 1000 nM, respectively.
Regarding `Nc1ccc(-c2ccc(F)cc2)nc1NC(=O)N1CCC(F)(c2ncccn2)C1` (single isomer, unassigned) [Compound 54], the values for the IC50 in assay [1], in assay [2] and in assay [3] were 1000 to 2000 nM, 500 to 1000 nM and 500 to 1000 nM, respectively.
Turning to `Nc1ccc(-c2ccc(F)cc2)nc1NC(=O)N1CCC(F)(c2ncccn2)C1` (single isomer, unassigned) [Compound 55], the IC50 in assay [1] was 500 to 1000 nM; in assay [2], less than 500 nM; in assay [3], less than 500 nM.
Take `Nc1ccc(-c2ccc(F)cc2F)nc1NC(=O)N1CCC(c2ccccn2)C1` (stereo not shown) [Compound 1]: the IC50 in assay [1] is more than 2000 nM; in assay [2], 500 to 1000 nM; in assay [3], 1000 to 2000 nM.
Take `Nc1ccc(-c2ccc(F)cc2F)nc1NC(=O)N1CCC(c2cccnc2)C1` (stereo not shown) [Compound 2]: the IC50 in assay [1] is more than 2000 nM; in assay [2], 1000 to 2000 nM; in assay [3], more than 2000 nM.
Take `Nc1ccc(-c2ccc(F)cc2F)nc1NC(=O)N1CCC(c2ccncc2)C1` (stereo not shown) [Compound 3]: the IC50 in assay [1], in assay [2] and in assay [3] was more than 2000 nM in each case.
With `Nc1ccc(-c2ccc(F)cc2F)nc1NC(=O)N1CCC(c2ccccc2)C1` (stereo not shown) [Compound 4], the results for the IC50 in assay [1], in assay [2] and in assay [3] were more than 2000 nM, 500 to 1000 nM and 1000 to 2000 nM, respectively.
In the case of `Nc1ccc(-c2ccc(F)cc2F)nc1NC(=O)N1CCC(c2cccnn2)C1` (stereo not shown) [Compound 9], the IC50 in assay [1] lay in the range of 1000 to 2000 nM; in assay [2], 500 to 1000 nM; in assay [3] it was 1000 to 2000 nM.
Turning to `Cc1ccnc(C2CCN(C(=O)Nc3nc(-c4ccc(F)cc4F)ccc3N)C2)n1` (stereo not shown) [Compound 10], the IC50 was 1000 to 2000 nM in assay [1], less than 500 nM in assay [2] and 500 to 1000 nM in assay [3].
The matching figures for `Nc1ccc(-c2ccc(F)cc2F)nc1NC(=O)N1CCC(c2ncc(F)cn2)C1` (stereo not shown) [Compound 14]: 1000 to 2000 nM, 500 to 1000 nM and 500 to 1000 nM.

These data come from patent US20210276978A1, “INHIBITORS OF HISTONE DEACETYLASE” (Alkermes, Inc., priority 2018, published 2021).
